According to ChEMBL document CHEMBL5126551, “Spiral molecules with antimalarial activities: A review” (Eur J Med Chem, 2022):
Values after ≈ are worked out from the molar mass of the structure shown. Values belong to the molecule of their own block, whether it stands above or below them.

Tests used:
[1] = test system: Plasmodium berghei; test: Antiplasmodial activity against luciferase expressing hepatic stage Plasmodium berghei sporozoites infected in human Huh-7 cells assessed as inhibition of parasite infection preincubated with cells for 1 hrs followed by parasite infection and measured after 48 hrs by bioluminescence assay; assay type: functional, organism-based
[2] = test system: Plasmodium falciparum; test: Antimalarial activity against Plasmodium falciparum NF54 assessed as inhibition of parasite growth incubated for 72 hrs by DAPI-staining based microscopic analysis; assay type: functional, organism-based; conditions: NF54, 72 h
[3] = test system: Plasmodium falciparum; test: Antimalarial activity against Plasmodium falciparum K1 assessed as inhibition of parasite growth incubated for 72 hrs by DAPI-staining based microscopic analysis; assay type: functional, organism-based; conditions: K1, 72 h
[4] = test system: Plasmodium falciparum; test: Antimalarial activity against chloroquine and quinine sensitive Plasmodium falciparum assessed as inhibition of parasite growth; assay type: functional, organism-based
[5] = test system: Plasmodium falciparum; test: Antimalarial activity against Plasmodium falciparum Cam3.I^R539T assessed as reduction in parasite survival at 175 nM measured after 6 hrs relative to control; assay type: functional
[6] = test system: Plasmodium falciparum; test: Antimalarial activity against Plasmodium falciparum Cam3.I^R539T assessed as reduction in parasite survival at 88 nM measured after 6 hrs relative to control; assay type: functional
[7] = test system: Plasmodium falciparum; test: Antimalarial activity against Plasmodium falciparum Cam3.I^R539T assessed as reduction in parasite survival at 49 nM measured after 6 hrs relative to control; assay type: functional
[8] = test system: Plasmodium falciparum; test: Antimalarial activity against Plasmodium falciparum Cam3.I^R539T assessed as reduction in parasite survival at 700 nM measured after 6 hrs relative to control; assay type: functional
[9] = test system: Plasmodium falciparum; test: Antimalarial activity against Plasmodium falciparum Cam3.I^R539T assessed as reduction in parasite survival at 350 nM measured after 6 hrs relative to control; assay type: functional
[10] = test system: Plasmodium falciparum; test: Antimalarial activity against chloroquine-sensitive Plasmodium falciparum 3D7 infected in human erythrocytes assessed as inhibition of parasite growth incubated for 48 hrs by parasite lactate dehydrogenase based colorimetric assay; assay type: functional, organism-based; conditions: 3D7, 48 h
[11] = test system: Plasmodium falciparum; test: Antimalarial activity against chloroquine-resistant Plasmodium falciparum FCR3 infected in human erythrocytes assessed as inhibition of parasite growth incubated for 48 hrs by [3H]-hypoxanthine incorporation assay; assay type: functional, organism-based
[12] = test system: Plasmodium falciparum; test: Antimalarial activity against Plasmodium falciparum 3D7 infected in human plasma assessed as inhibition of parasite growth by Giema staining based assay; assay type: functional, organism-based; conditions: 3D7, Plasma
[13] = test system: Plasmodium falciparum; test: Antimalarial activity against chloroquine and antifolate resistant Plasmodium falciparum K1 infected in human erythrocyte preincubated for 24 hrs followed by hypoxanthine addition and measured after 18 to 20 hrs by [3H]-hypoxanthine incorporation assay; assay type: functional, organism-based
[14] = test system: Plasmodium falciparum; test: Antimalarial activity against chloroquine-resistant Plasmodium falciparum K14 infected in human red blood cells assessed as inhibition of parasite growth incubated for 42 hrs by [3H]-hypoxanthine incorporation assay; assay type: functional, organism-based, Red blood cell; conditions: K14, Erythrocyte
[15] = test system: Plasmodium falciparum; test: Antimalarial activity against Plasmodium falciparum FCB assessed as inhibition of parasite growth; assay type: functional, organism-based
[16] = test system: Plasmodium falciparum; test: Antimalarial activity against Plasmodium falciparum Dd2 assessed as inhibition of parasite growth; assay type: functional, organism-based
[17] = test system: Plasmodium falciparum; test: Antimalarial activity against Plasmodium falciparum 7G8 assessed as inhibition of parasite growth; assay type: functional, organism-based
[18] = test system: Plasmodium falciparum; test: Antimalarial activity against Plasmodium falciparum 1 assessed as inhibition of parasite growth; assay type: functional, organism-based
[19] = test system: Plasmodium falciparum; test: Antimalarial activity against Plasmodium falciparum 3D7 assessed as inhibition of parasite growth; assay type: functional, organism-based
[20] = test system: Plasmodium falciparum; test: Antimalarial activity against Plasmodium falciparum V1/S assessed as inhibition of parasite growth; assay type: functional, organism-based
[21] = test system: Plasmodium falciparum; test: Antimalarial activity against Plasmodium falciparum D6 assessed as inhibition of parasite growth; assay type: functional, organism-based
[22] = test system: Plasmodium falciparum; test: Antimalarial activity against Plasmodium falciparum TM90C2B assessed as inhibition of parasite growth; assay type: functional, organism-based
[23] = test system: Plasmodium falciparum; test: Antimalarial activity against Plasmodium falciparum HB3 assessed as inhibition of parasite growth; assay type: functional, organism-based
[24] = test system: Plasmodium falciparum; test: Antimalarial activity against chloroquine sensitive Plasmodium falciparum NF54 assessed as inhibition of parasite growth by [3H]-hypoxanthine incorporation assay; assay type: functional, organism-based
[25] = test system: Plasmodium falciparum; test: Antimalarial activity against chloroquine resistant Plasmodium falciparum K1 assessed as inhibition of parasite growth by [3H]-hypoxanthine incorporation assay; assay type: functional, organism-based
[26] = test system: Plasmodium falciparum; test: Antimalarial activity against chloroquine-resistant Plasmodium falciparum K1 infected in human erythrocytes incubated for 72 hrs by parasite lactate dehydrogenase assay; assay type: functional, organism-based; conditions: K1, Erythrocyte
[27] = Cytotoxicity against human MRC5 cells assessed as inhibition of cell growth incubated for 7 days by MTT assay; assay type: toxicity, cell-based

- IC50 [1]: 2670 nM
Structure (SMILES): CC(C)(C)OC(=O)C1C(c2ccccc2)(c2ccccc2)C12C(=O)N1[C@@H](C(=O)OC(c3ccccc3)c3ccccc3)C(C)(C)S[C@@H]12 (stereo partly specified)

Structure (SMILES): C=CCOc1c2n(c3ccccc13)C=CC[C@@]21C(=O)c2ccccc2N1CC=C
- IC50 [2]: ≥ 5000 nM
- IC50 [3]: ≥ 5000 nM

Structure (SMILES): CC(C)OC(=O)C1=C2N=C(c3cccnc3)NN2C2=C(C(=O)CCC2)C12C(=O)Nc1ccc(F)cc12 (stereo unspecified)
- IC50 [4]: 454 nM

Structure (SMILES): CC1(C)CC(O)(Cc2ccc(C3CCC4(CC3)OOC3(O4)C4CC5CC(C4)CC3C5)cc2)CC(C)(C)N1 (stereo unspecified)
- Activity [5]: 0.12%
- Activity [6]: 0.17%
- Activity [7]: 1.29%
- Activity [8]: 0%
- Activity [9]: 0%

Structure (SMILES): COc1cc([C@@H]2c3cc(Br)ccc3NC3(C(=O)Nc4ccccc43)[C@H]2C)ccc1O (stereo partly specified)
- IC50 [10]: 1310 nM
- IC50 [11]: 1520 nM

Structure (SMILES): CCOC(=O)C1=C2N=C(c3cccnc3)NN2C2=C(C(=O)CCC2)C12C(=O)Nc1ccccc12 (stereo unspecified)
- IC50 [4]: 422 nM

Structure (SMILES): CC1=CC(=O)CC(C)(C)[C@@]12C=C[C@H](C)O2
- IC50 [12]: 27 nM

Structure (SMILES): C=CCN1C(=O)[C@@]2(c3ccccc31)C(c1ccccc1)C=CN1N3C=CC=CC3C(=O)[C@@]12C/C=C/c1ccccc1 (stereo partly specified)
- IC50 [13]: 8300 nM

Structure (SMILES): C=CCN1C(=O)[C@]2(CC=CN3c4ccccc4C(=O)[C@@]32CC=C)c2ccccc21
- IC50 [13]: 9300 nM

Structure (SMILES): O=C1OC[C@H](CN2C3=C4C(=O)c5ccccc5C4C[C@@H]4CO[C@@]3(O4)c3ccccc32)O1 (stereo partly specified)
- IC50 [2]: 9 nM
- IC50 [3]: 9 nM

Structure (SMILES): CC(=O)O[C@@H]1[C@H](C)[C@@H](C)O[C@@]2([C@@H]1C)[C@@H](C)C=C(C)C(=O)[C@@H]2C
- IC50 [12]: 16000 nM

Structure (SMILES): c1cc(C2CCC3(CC2)OOC2(O3)C3CC4CC(C3)CC2C4)ccc1OCCC1CCNCC1 (stereo unspecified)
- Activity [5]: 0%
- Activity [6]: 0%
- Activity [7]: 0.76%
- Activity [8]: 0%
- Activity [9]: 0%

Structure (SMILES): CCN(CC)c1ccc(N2C(=O)C(Oc3ccccc3)C23c2ccccc2-c2ccccc23)cc1 (stereo unspecified)
- IC50 [14]: 6400 nM

Structure (SMILES): CCOC(=O)C1=C2N=C(c3cccnc3)NN2C2=C(C(=O)CCC2)C12C(=O)Nc1ccc(F)cc12 (stereo unspecified)
- IC50 [4]: 122 nM

Structure (SMILES): FC1CCN(CCOc2ccc(C3CCC4(CC3)OOC3(OO4)C4CCCC3CCC4)cc2)CC1 (stereo unspecified)
- IC50 [15]: 14 nM
- IC50 [16]: 7.7 nM
- IC50 [17]: 2.9 nM
- IC50 [18]: 4.2 nM
- IC50 [19]: 5.1 nM
- IC50 [20]: 4.2 nM
- IC50 [21]: 8.5 nM
- IC50 [22]: 7.3 nM
- IC50 [23]: 4.2 nM

Structure (SMILES): NCC1CCC2(CC1)OOC1(O2)C2CC3CC(C2)CC1C3 (stereo unspecified)
- IC50 [24]: 0.42 ng/mL (≈ 1.43 nM)
- IC50 [25]: 0.39 ng/mL (≈ 1.33 nM)

Structure (SMILES): CC(C)(N)CNC(=O)CC1CCC2(CC1)OOC1(O2)C2CC3CC(C2)CC1C3 (stereo unspecified)
- IC50 [24]: 0.54 ng/mL (≈ 1.38 nM)
- IC50 [25]: 0.57 ng/mL (≈ 1.45 nM)

Structure (SMILES): COc1cc2c(cc1O)CCN1CC=C3C=C[C@H](OC)C[C@]321 [ERYSODINE]
- IC50 [26]: 6500 nM
- IC50 at 7 days [27]: > 64000 nM

Structure (SMILES): COc1cc2c(cc1OC)[C@]13C[C@@H](OC)C=CC1=CCN3CC2 [ERYSOTRINE]
- IC50 [26]: 20600 nM
- IC50 at 7 days [27]: > 64000 nM

Structure (SMILES): COc1cc2c(cc1O)[C@]13C[C@@H](OC)C=CC1=CCN3CC2 [ERYSOVINE]
- IC50 [26]: 4100 nM
- IC50 at 7 days [27]: > 64000 nM

Structure (SMILES): CO[C@H]1C=CC2=CCN3CCc4cc5c(cc4[C@]23C1)OCO5 [ERYTHRALINE]
- IC50 [26]: 7300 nM
- IC50 at 7 days [27]: > 64000 nM
